“And” between values parts separate entries of the source, which are not always exact repeats. Identical values can stand only once.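 Assay format: 96-well plates, 48-hour exposure. GI50 is the concentration that inhibits growth by half. TGI is the concentration that stops growth completely.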
How the values were obtained:
Test in all cases: DTP human tumour cell line panel, 48 h
786-0 renal = tested on: 786-0 renal
A498 renal = tested on: A498 renal
A549 NSCLC = tested on: A549 NSCLC
ACHN renal = tested on: ACHN renal
BT-549 breast = tested on: BT-549 breast
CAKI-1 renal = tested on: CAKI-1 renal
CCRF-CEM leukemia = tested on: CCRF-CEM leukemia
COLO 205 colon = tested on: COLO 205 colon
DU-145 prostate = tested on: DU-145 prostate
EKVX NSCLC = tested on: EKVX NSCLC
HCC-2998 colon = tested on: HCC-2998 colon
HCT-116 colon = tested on: HCT-116 colon
HCT-15 colon = tested on: HCT-15 colon
HL-60(TB) leukemia = tested on: HL-60(TB) leukemia
HOP-62 NSCLC = tested on: HOP-62 NSCLC
HOP-92 NSCLC = tested on: HOP-92 NSCLC
HS 578T breast = tested on: HS 578T breast
HT29 colon = tested on: HT29 colon
IGROV1 ovarian = tested on: IGROV1 ovarian
K-562 leukemia = tested on: K-562 leukemia
KM12 colon = tested on: KM12 colon
LOX IMVI melanoma = tested on: LOX IMVI melanoma
M14 melanoma = tested on: M14 melanoma
MALME-3M melanoma = tested on: MALME-3M melanoma
MCF7 breast = tested on: MCF7 breast
MDA-MB-231 breast = tested on: MDA-MB-231 breast
MDA-MB-435 = tested on: MDA-MB-435
MDA-N = tested on: MDA-N
MOLT-4 leukemia = tested on: MOLT-4 leukemia
NCI-H226 lung = tested on: NCI-H226 lung
NCI-H23 lung = tested on: NCI-H23 lung
NCI-H460 lung = tested on: NCI-H460 lung
NCI-H522 lung = tested on: NCI-H522 lung
NCI/ADR-RES ovarian = tested on: NCI/ADR-RES ovarian
OVCAR-3 ovarian = tested on: OVCAR-3 ovarian
OVCAR-4 ovarian = tested on: OVCAR-4 ovarian
OVCAR-5 ovarian = tested on: OVCAR-5 ovarian
OVCAR-8 ovarian = tested on: OVCAR-8 ovarian
PC-3 prostate = tested on: PC-3 prostate
RPMI-8226 leukemia = tested on: RPMI-8226 leukemia
RXF 393 renal = tested on: RXF 393 renal
SF-268 CNS = tested on: SF-268 CNS
SF-295 CNS = tested on: SF-295 CNS
SF-539 CNS = tested on: SF-539 CNS
SK-MEL-2 melanoma = tested on: SK-MEL-2 melanoma
SK-MEL-28 melanoma = tested on: SK-MEL-28 melanoma
SK-MEL-5 melanoma = tested on: SK-MEL-5 melanoma
SK-OV-3 ovarian = tested on: SK-OV-3 ovarian
SN12C renal = tested on: SN12C renal
SNB-19 CNS = tested on: SNB-19 CNS
SNB-75 CNS = tested on: SNB-75 CNS
SR leukemia = tested on: SR leukemia
SW-620 colon = tested on: SW-620 colon
T-47D breast = tested on: T-47D breast
TK-10 renal = tested on: TK-10 renal
U251 CNS = tested on: U251 CNS
UACC-257 melanoma = tested on: UACC-257 melanoma
UACC-62 melanoma = tested on: UACC-62 melanoma
UO-31 renal = tested on: UO-31 renal

Nc1ccccc1NC(=O)c1ccc(CNC(=O)OCc2cccnc2)cc1
GI50 (786-0 renal): 4.96 µM | TGI (786-0 renal): > 90.9 µM | GI50 (A498 renal): 0.361 µM | TGI (A498 renal): 2.98 µM and 4.14 µM | TGI (A549 NSCLC): > 100 µM | GI50 (ACHN renal): 2.34 µM | TGI (ACHN renal): > 77.7 µM and 25.7 µM | GI50 (BT-549 breast): 4.14 µM | TGI (BT-549 breast): > 100 µM | GI50 (CAKI-1 renal): 1.17 µM | TGI (CAKI-1 renal): 14.1 µM and > 59.5 µM | GI50 (CCRF-CEM leukemia): 1.94 µM | TGI (CCRF-CEM leukemia): > 100 µM and 21.7 µM | GI50 (COLO 205 colon): 2.01 µM | TGI (COLO 205 colon): 8.37 µM and 3.03 µM | GI50 (DU-145 prostate): 2.26 µM | TGI (DU-145 prostate): > 100 µM | GI50 (EKVX NSCLC): 3.26 µM | TGI (EKVX NSCLC): > 100 µM | TGI (HCC-2998 colon): 5.44 µM and 9.79 µM | GI50 (HCT-116 colon): 0.798 µM | TGI (HCT-116 colon): > 92 µM and 11.6 µM | GI50 (HCT-15 colon): 8.47 µM | TGI (HCT-15 colon): > 100 µM | GI50 (HL-60(TB) leukemia): 0.847 µM | TGI (HL-60(TB) leukemia): 26.6 µM and > 22.5 µM | TGI (HOP-62 NSCLC): > 90 µM | GI50 (HOP-92 NSCLC): 0.0382 µM | GI50 (HS 578T breast): 2.33 µM | TGI (HS 578T breast): > 100 µM | GI50 (HT29 colon): 1.04 µM | GI50 (IGROV1 ovarian): 3.95 µM | TGI (IGROV1 ovarian): > 61.6 µM and 36.2 µM | GI50 (K-562 leukemia): 0.505 µM | TGI (K-562 leukemia): > 100 µM | GI50 (KM12 colon): 4.31 µM | TGI (KM12 colon): > 100 µM | GI50 (LOX IMVI melanoma): 1.06 µM | TGI (LOX IMVI melanoma): 8.67 µM and 5.94 µM | GI50 (M14 melanoma): 2.35 µM | TGI (M14 melanoma): > 100 µM and 15.5 µM | GI50 (MALME-3M melanoma): 0.577 µM and 0.267 µM | TGI (MALME-3M melanoma): > 23.6 µM and 2.39 µM | GI50 (MCF7 breast): 0.637 µM | TGI (MCF7 breast): > 100 µM | GI50 (MDA-MB-231 breast): 13.8 µM | TGI (MDA-MB-231 breast): > 100 µM and 25.6 µM | GI50 (MDA-MB-435): 0.956 µM | TGI (MDA-MB-435): 14.8 µM and > 33.1 µM | TGI (MDA-N): 12.4 µM | GI50 (MOLT-4 leukemia): 1.93 µM | TGI (MOLT-4 leukemia): > 85 µM | GI50 (NCI-H226 lung): 0.604 µM | TGI (NCI-H226 lung): 16.9 µM and 5.73 µM | GI50 (NCI-H23 lung): 3.23 µM | TGI (NCI-H23 lung): > 89.4 µM and 14.9 µM | GI50 (NCI-H460 lung): 0.83 µM | TGI (NCI-H460 lung): > 100 µM | GI50 (NCI-H522 lung): 0.698 µM | TGI (NCI-H522 lung): 7.41 µM and > 27.9 µM | GI50 (NCI/ADR-RES ovarian): 2.38 µM | TGI (NCI/ADR-RES ovarian): > 67.4 µM | GI50 (OVCAR-3 ovarian): 1.74 µM | TGI (OVCAR-3 ovarian): 11.5 µM and 14.8 µM | GI50 (OVCAR-4 ovarian): 1.31 µM | TGI (OVCAR-4 ovarian): > 100 µM | GI50 (OVCAR-5 ovarian): 1.05 µM | TGI (OVCAR-8 ovarian): > 100 µM | TGI (PC-3 prostate): > 100 µM | GI50 (RPMI-8226 leukemia): 0.895 µM | TGI (RPMI-8226 leukemia): > 29.5 µM and 4.54 µM | GI50 (RXF 393 renal): 1.49 µM | TGI (RXF 393 renal): 6.31 µM and 27.6 µM | GI50 (SF-268 CNS): 1.86 µM | TGI (SF-268 CNS): 25 µM and > 74.7 µM | GI50 (SF-295 CNS): 2.57 µM | TGI (SF-295 CNS): > 39.8 µM and 16.6 µM | GI50 (SF-539 CNS): 3.19 µM | TGI (SF-539 CNS): 78.7 µM and > 52.1 µM | GI50 (SK-MEL-2 melanoma): 1.1 µM | TGI (SK-MEL-2 melanoma): 15 µM and 3.2 µM | GI50 (SK-MEL-28 melanoma): 0.663 µM | TGI (SK-MEL-28 melanoma): 5.94 µM and > 45.4 µM | GI50 (SK-MEL-5 melanoma): 0.743 µM | TGI (SK-MEL-5 melanoma): 2.31 µM and 2.3 µM | GI50 (SK-OV-3 ovarian): 2.75 µM | TGI (SK-OV-3 ovarian): > 100 µM | GI50 (SN12C renal): 9.39 µM | TGI (SN12C renal): > 100 µM | GI50 (SNB-19 CNS): 6.33 µM | TGI (SNB-19 CNS): > 100 µM and 75.2 µM | TGI (SNB-75 CNS): > 100 µM | GI50 (SR leukemia): 0.533 µM | TGI (SR leukemia): > 100 µM | GI50 (SW-620 colon): 1.3 µM | TGI (SW-620 colon): 34.5 µM and > 100 µM | GI50 (T-47D breast): 0.462 µM | TGI (T-47D breast): > 100 µM | GI50 (TK-10 renal): 0.289 µM | TGI (TK-10 renal): 38.8 µM and > 100 µM | GI50 (U251 CNS): 2.03 µM | TGI (U251 CNS): > 39.5 µM and 5.74 µM | TGI (UACC-257 melanoma): > 29 µM | GI50 (UACC-62 melanoma): 0.278 µM | TGI (UACC-62 melanoma): 1.77 µM and 4.81 µM | GI50 (UO-31 renal): 1.17 µM | TGI (UO-31 renal): > 100 µM and 20.3 µM

Source: PubChem BioAssay (NCI)
